Measurements published in patent publication US11571398B1, “Compositions comprising ephedrine or an ephedrine salt and methods of making and using same” (Nexus Pharmaceuticals, Inc., priority 2019, dated 2023).
Where two headings read alike, the source gives them in different places.

Experiments:
[1] = HPLC-UV-CAD (QTOF LC-MS) extractables of stoppers: 50/50 IPA/Water extract; format: physicochemical; conditions: stopper extract, reflux 12 hours, relative quantitation against standard (12-HDA, Irgacure 184 or Oleamide), average of duplicate injections
[2] = HPLC-UV-CAD (QTOF LC-MS) extractables of stoppers: pH 9.4 extract; format: physicochemical; conditions: stopper extract, water pH 9.4, reflux 20 hours; relative quantitation against standard (12-HDA, Irgacure 184 or Oleamide); average of duplicate injections
[3] = for ICP-MS Results (ppb) Glass vials (2% HNO3): glass vials extracted in 2% HNO3, 60° C.; for ICP-MS Results (ppb) Glass vials (2% HNO3) / ICP-MS Results (ppb) Stoppers (2% HNO3): ~24 h; for ICP-MS Results (ppb) Stoppers (2% HNO3): stoppers extracted in 2% HNO3, 60° C.
[4] = 2.5 ppb = lowest calibration concentration
[5] = stoppers, refluxed aqueous solution pH 3.4, 2.5 ppb = lowest calibration concentration

## CCCCCC[C@@H](O)C/C=C\CCCCCCCC(=O)O [Ricinoleic acid]
[1]
  Est. Conc. of extractable (possible identification), HPLC-UV-CAD: <0.5 µg/mL

## CCCCCCCCCCCCCC(=O)O [Myristic acid]
[1]
  Est. Conc. of extractable (possible identification), HPLC-UV-CAD: <0.5 µg/mL

## Laureth-3
[1]
  Est. Conc. of extractable (possible identification), HPLC-UV-CAD: <0.5 µg/mL

## C1COCCOCCSSCCOCCO1
[1]
  Est. Conc. of extractable (possible identification), HPLC-UV-CAD: <0.5 µg/mL

## O=S(O)S(=O)O [Dithionous acid]
[2]
  Est. Conc. of extractable (possible identification), HPLC-UV-CAD: 3.52 µg/mL

## Lithium
[3]; [4]
  ICP-MS Results (ppb) Glass vials (2% HNO3): 2.6 ppb
[3]; pH 3.4
  ICP-MS Results (ppb) Stoppers (Reflux pH 3.4): <2.5 ppb

## Antimony
[3]; [4]
  ICP-MS Results (ppb) Glass vials (2% HNO3): <2.5 ppb
[3]; pH 3.4
  ICP-MS Results (ppb) Stoppers (Reflux pH 3.4): <2.5 ppb

## CCCCCCCCCCCCCCCC(=O)O [Palmitic acid]
[1]
  Est. Conc. of extractable (possible identification), HPLC-UV-CAD: 10.74 µg/mL

## CCCCCCCCCCCCCCCC(N)=O [Palmitamide]
[1]
  Est. Conc. of extractable (possible identification), HPLC-UV-CAD: <0.5 µg/mL

## CCCCCCCCCCCCCCCCCC(N)=O [Stearamide]
[1]
  Est. Conc. of extractable (possible identification), HPLC-UV-CAD: <0.5 µg/mL

## OCCOCCOCCO [Triethylene glycol]
[2]
  Est. Conc. of extractable (possible identification), HPLC-UV-CAD: <0.5 µg/mL
[1]
  Est. Conc. of extractable (possible identification), HPLC-UV-CAD: <0.5 µg/mL

## Laureth-4
[1]
  Est. Conc. of extractable (possible identification), HPLC-UV-CAD: <0.5 µg/mL

## CCCCCCCCCCCC(=O)NCCC[N+](C)(C)CC(=O)[O-] [Lauramidopropyl betaine]
[1]
  Est. Conc. of extractable (possible identification), HPLC-UV-CAD: <0.5 µg/mL

## Arsenic
[3]; [4]
  ICP-MS Results (ppb) Glass vials (2% HNO3): <2.5 ppb
  ICP-MS Results (ppb) Stoppers (2% HNO3): <2.5 ppb
[3]; [5]
  ICP-MS Results (ppb) Stoppers (Reflux pH 3.4): <2.5 ppb

## CCCC(=O)C(O)c1ccccc1 (stereo not shown) [Lot 1-Hydroxy-1-phenyl-2-pentanone]
[2]
  Est. Conc. of extractable (possible identification), HPLC-UV-CAD: 0.10 µg/mL
[1]
  Est. Conc. of extractable (possible identification), HPLC-UV-CAD: 30.47 µg/mL

## Cobalt
[3]; [4]
  ICP-MS Results (ppb) Glass vials (2% HNO3): 2.6 ppb
[3]; pH 3.4
  ICP-MS Results (ppb) Stoppers (Reflux pH 3.4): <2.5 ppb

## CCCCCCCCCCCC(=O)O [Lauric acid]
[1]
  Est. Conc. of extractable (possible identification), HPLC-UV-CAD: <0.5 µg/mL

## CCCCOCCOCCOC(C)=O [Butyldiglycol acetate]
[1]
  Est. Conc. of extractable (possible identification), HPLC-UV-CAD: <0.5 µg/mL

## CCCCCCCC/C=C\CCCCCCCC(N)=O [Oleamide]
[1]
  Est. Conc. of extractable (possible identification), HPLC-UV-CAD: <0.5 µg/mL

## Cc1cc(C(C)(C)C)cc(S(=O)(=O)O)c1 [5-(tert-Butyl)-3-toluenesulfonic acid]
[1]
  Est. Conc. of extractable (possible identification), HPLC-UV-CAD: 0.25 µg/mL

## CCCCCCCCCCCCOS(C)(=O)=O [Dodecyl methanesulfonate]
[1]
  Est. Conc. of extractable (possible identification), HPLC-UV-CAD: 0.65 µg/mL

## Cadmium
[3]; [4]
  ICP-MS Results (ppb) Glass vials (2% HNO3): <2.5 ppb
  ICP-MS Results (ppb) Stoppers (2% HNO3): <2.5 ppb
[3]; [5]
  ICP-MS Results (ppb) Stoppers (Reflux pH 3.4): <2.5 ppb

## Laureth-9
[1]
  Est. Conc. of extractable (possible identification), HPLC-UV-CAD: <0.5 µg/mL

## Copper
[3]; [4]
  ICP-MS Results (ppb) Glass vials (2% HNO3): 3.7 ppb
[3]; pH 3.4
  ICP-MS Results (ppb) Stoppers (Reflux pH 3.4): <2.5 ppb

## Lead
[3]; [4]
  ICP-MS Results (ppb) Glass vials (2% HNO3): <2.5 ppb
  ICP-MS Results (ppb) Stoppers (2% HNO3): <2.5 ppb
[3]; [5]
  ICP-MS Results (ppb) Stoppers (Reflux pH 3.4): <2.5 ppb
